Data: US20260365670A1, “EGFR INHIBITORS AND USES THEREOF” (DIZAL (JIANGSU) PHARMACEUTICAL CO., LTD., priority 2022, published 2026)
Read-outs that look alike come from different tables or passages of the source.

Key:
EGFR Exon19Del = target: T1, EGFR Exon19Del (Homo sapiens, UniProt P00533, DEL746-750); test: Inhibition of EGFR Exon19Del biochemical enzymatic activity (HTRF)
T1 construct: purchased Carna Bio
In short: (§1)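 Phosphorylation of TK Substrate-biotin (1 μM) was measured at 1 mM ATP over a 1 h room-temperature incubation with serially varied compound. Detection was by HTRF ratio and analysis by 4PL fit to IC50.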

EGFR Exon19Del/T790M = target: T2, EGFR Exon19Del/T790M (Homo sapiens, UniProt P00533, DEL746-750/T790M); test: Inhibition of EGFR Exon19Del/T790M biochemical enzymatic activity (HTRF); details: 1 mM ATP
T2 construct: purchased Carna Bio
T2 sequence (P00533 with tags, fused parts or gaps DEL746-750/T790M limits assumed): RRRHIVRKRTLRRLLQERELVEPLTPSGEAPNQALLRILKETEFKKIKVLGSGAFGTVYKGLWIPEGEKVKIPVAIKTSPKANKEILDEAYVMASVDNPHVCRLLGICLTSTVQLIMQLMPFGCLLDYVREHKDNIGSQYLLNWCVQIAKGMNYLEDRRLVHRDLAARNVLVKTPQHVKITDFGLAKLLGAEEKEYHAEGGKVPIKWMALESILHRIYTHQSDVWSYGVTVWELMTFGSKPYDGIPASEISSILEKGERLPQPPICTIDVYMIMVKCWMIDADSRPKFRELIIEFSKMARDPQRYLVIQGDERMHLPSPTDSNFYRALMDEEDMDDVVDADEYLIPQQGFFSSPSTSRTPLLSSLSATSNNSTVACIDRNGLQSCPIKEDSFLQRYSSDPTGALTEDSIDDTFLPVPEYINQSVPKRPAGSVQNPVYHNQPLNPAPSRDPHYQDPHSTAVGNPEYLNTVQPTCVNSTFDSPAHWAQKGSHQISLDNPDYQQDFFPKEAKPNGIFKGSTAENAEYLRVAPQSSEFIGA
In short: as §1

EGFR[T790M/C797S/L858R] = target: T3, EGFR[T790M/C797S/L858R] (Homo sapiens, UniProt P00533, C797S/L858R/T790M); test: Inhibition of EGFR[T790M/C797S/L858R] biochemical enzymatic activity (HTRF); details: 1 mM ATP
T3 construct: purchased Carna Bio
T3 sequence (P00533 25-1210 T790M/C797S/L858R): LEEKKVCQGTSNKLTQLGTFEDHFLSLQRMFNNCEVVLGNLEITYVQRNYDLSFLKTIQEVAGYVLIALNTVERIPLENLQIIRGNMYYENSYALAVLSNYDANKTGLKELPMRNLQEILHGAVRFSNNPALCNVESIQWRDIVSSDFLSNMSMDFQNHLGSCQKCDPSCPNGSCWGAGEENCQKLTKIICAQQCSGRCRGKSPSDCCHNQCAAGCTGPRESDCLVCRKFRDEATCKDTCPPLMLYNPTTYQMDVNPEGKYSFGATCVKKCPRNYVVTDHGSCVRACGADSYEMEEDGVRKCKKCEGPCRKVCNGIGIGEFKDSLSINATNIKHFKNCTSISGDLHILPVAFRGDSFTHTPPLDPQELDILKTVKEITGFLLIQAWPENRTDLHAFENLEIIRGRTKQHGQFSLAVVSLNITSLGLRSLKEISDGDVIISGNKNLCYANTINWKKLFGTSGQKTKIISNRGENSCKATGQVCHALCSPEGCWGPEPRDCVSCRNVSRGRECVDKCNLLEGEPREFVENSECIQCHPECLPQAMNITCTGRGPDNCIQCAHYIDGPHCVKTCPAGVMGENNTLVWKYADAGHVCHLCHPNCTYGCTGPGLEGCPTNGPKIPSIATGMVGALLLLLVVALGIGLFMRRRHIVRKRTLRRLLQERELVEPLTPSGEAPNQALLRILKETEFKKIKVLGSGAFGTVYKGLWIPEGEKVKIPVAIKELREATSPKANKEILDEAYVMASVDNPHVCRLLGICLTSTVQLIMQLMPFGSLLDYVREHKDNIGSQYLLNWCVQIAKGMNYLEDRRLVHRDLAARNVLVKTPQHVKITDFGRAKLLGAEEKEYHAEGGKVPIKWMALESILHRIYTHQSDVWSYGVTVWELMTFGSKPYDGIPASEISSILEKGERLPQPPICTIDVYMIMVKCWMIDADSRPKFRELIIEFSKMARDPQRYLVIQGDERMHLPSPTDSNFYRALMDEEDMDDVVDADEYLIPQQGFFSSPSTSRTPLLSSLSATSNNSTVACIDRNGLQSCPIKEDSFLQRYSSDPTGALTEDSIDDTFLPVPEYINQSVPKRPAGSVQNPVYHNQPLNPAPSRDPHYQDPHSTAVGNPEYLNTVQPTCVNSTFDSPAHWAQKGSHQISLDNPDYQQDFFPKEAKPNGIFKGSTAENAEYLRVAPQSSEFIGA
In short: as §1

EGFR (C797S L858R) = target: T4, EGFR (C797S L858R) (Homo sapiens, UniProt P00533, C797S/L858R); test: Inhibition of EGFR (C797S L858R) biochemical enzymatic activity (HTRF); details: 1 mM ATP
T4 construct: purchased signalchem
In short: as §1

PC-9 = test: Cell proliferation assay, PC-9 cells (CellTiter-Glo, 72 hours); type: cell-based; details: Homo sapiens, PC-9, 72 h, PC9 cells, read-out: GI50 PC9
In short: (§2)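 GI50 is the concentration giving 50% proliferation inhibition. Growth for this was normalised to a baseline viability reading taken when compound was added, and to DMSO wells. PC-9 (500 cells/well) and mutant-EGFR Ba/F3 (5000 cells/well) are treated after overnight seeding in RPMI1640-based medium.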

EGFR (d746-750 C797S) = target: T5, EGFR (d746-750 C797S) (Homo sapiens, UniProt P00533, C797S/DEL746-750); test: Inhibition of EGFR (d746-750 C797S) biochemical enzymatic activity (HTRF); details: 1 mM ATP
T5 construct: purchased signalchem
In short: as §1

[1] = tested on: Ba/F3 cells expressing EGFR mutations; test: Cell proliferation assay, Ba/F3 cells expressing EGFR mutations (CellTiter-Glo, 72 hours); type: cell-based; details: Mus musculus, BaF3, 72 h
In short: as §2

EGFR wild type = target: T6, EGFR wild type (Homo sapiens, UniProt P00533); test: Inhibition of EGFR wild type biochemical enzymatic activity (HTRF); details: 1 mM ATP
T6 construct: purchased Carna Bio
T6 sequence (P00533 25-1210): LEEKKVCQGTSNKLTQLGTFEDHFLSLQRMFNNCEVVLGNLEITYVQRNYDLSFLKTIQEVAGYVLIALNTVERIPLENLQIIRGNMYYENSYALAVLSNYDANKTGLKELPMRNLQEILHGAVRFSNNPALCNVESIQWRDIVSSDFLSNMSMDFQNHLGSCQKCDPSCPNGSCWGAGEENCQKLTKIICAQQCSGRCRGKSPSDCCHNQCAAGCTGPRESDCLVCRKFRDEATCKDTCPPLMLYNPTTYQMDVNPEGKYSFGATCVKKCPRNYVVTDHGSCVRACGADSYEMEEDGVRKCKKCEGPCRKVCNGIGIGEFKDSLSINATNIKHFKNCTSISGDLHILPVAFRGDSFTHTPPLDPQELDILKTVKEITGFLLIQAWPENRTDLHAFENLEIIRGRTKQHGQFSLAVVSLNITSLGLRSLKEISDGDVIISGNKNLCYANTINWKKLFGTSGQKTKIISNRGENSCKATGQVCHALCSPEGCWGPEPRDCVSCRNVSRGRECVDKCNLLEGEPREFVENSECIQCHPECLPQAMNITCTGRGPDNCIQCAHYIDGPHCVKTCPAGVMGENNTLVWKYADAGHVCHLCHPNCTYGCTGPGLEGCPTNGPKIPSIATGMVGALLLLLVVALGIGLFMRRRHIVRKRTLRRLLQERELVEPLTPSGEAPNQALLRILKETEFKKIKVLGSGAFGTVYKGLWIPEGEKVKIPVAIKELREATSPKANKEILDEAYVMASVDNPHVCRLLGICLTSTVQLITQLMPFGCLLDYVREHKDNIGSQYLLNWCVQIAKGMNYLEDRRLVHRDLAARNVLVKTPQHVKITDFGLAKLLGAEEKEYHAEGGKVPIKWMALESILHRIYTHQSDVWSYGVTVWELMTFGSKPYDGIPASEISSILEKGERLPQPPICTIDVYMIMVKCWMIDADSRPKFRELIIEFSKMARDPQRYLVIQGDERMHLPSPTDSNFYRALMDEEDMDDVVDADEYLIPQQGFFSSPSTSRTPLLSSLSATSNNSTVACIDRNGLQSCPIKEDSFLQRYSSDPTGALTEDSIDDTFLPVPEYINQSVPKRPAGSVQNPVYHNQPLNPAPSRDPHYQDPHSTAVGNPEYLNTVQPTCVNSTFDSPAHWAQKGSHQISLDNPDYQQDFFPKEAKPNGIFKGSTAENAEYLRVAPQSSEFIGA
In short: as §1

EGFR L858R/T790M = target: T7, EGFR L858R/T790M (Homo sapiens, UniProt P00533, L858R/T790M); test: Inhibition of EGFR L858R/T790M biochemical enzymatic activity (HTRF); details: 1 mM ATP
T7 construct: purchased Carna Bio
T7 sequence (P00533 25-1210 T790M/L858R): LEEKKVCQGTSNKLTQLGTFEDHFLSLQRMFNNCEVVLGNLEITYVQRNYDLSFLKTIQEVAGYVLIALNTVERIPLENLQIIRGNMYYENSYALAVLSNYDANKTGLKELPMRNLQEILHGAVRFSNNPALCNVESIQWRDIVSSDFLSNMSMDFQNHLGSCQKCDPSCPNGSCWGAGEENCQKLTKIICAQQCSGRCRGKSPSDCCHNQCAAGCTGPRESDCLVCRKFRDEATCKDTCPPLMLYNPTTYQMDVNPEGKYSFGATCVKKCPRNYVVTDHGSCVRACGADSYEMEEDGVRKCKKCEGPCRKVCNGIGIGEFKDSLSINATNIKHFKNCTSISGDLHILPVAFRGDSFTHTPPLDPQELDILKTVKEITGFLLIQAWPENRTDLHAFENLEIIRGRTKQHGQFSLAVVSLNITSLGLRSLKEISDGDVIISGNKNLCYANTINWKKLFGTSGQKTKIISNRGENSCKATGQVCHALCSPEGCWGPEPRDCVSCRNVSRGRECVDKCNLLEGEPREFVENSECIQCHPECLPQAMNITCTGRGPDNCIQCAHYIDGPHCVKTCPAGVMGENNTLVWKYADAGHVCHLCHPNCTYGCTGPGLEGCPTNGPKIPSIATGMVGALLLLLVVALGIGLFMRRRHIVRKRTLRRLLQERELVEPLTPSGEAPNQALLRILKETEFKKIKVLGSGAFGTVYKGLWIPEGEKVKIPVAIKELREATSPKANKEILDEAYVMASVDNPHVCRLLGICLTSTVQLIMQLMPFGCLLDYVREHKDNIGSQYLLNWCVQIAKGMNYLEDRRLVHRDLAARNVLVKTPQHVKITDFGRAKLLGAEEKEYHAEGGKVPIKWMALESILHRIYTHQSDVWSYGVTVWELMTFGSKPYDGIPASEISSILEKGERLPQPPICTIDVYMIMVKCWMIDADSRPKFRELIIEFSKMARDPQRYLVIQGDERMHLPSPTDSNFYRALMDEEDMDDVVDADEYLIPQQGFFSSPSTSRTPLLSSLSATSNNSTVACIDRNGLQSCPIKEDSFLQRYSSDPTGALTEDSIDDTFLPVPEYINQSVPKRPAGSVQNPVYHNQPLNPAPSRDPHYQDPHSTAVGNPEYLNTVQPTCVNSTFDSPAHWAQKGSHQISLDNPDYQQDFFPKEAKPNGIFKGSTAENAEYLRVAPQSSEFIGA
In short: as §1

A-431 = test: Cell proliferation assay, A-431 cells (GI50, Table 6); type: cell-based; details: Homo sapiens, A-431, A-431 cells
[2] = target: T8, EGFR[T790M/C797S/d746-750] (Homo sapiens, UniProt P00533, C797S/DEL746-750/T790M); test: Inhibition of EGFR[T790M/C797S/d746-750] biochemical enzymatic activity (HTRF)
T8 construct: purchased Carna Bio
T8 sequence (P00533 with tags, fused parts or gaps DEL746-750/T790M/C797S limits assumed): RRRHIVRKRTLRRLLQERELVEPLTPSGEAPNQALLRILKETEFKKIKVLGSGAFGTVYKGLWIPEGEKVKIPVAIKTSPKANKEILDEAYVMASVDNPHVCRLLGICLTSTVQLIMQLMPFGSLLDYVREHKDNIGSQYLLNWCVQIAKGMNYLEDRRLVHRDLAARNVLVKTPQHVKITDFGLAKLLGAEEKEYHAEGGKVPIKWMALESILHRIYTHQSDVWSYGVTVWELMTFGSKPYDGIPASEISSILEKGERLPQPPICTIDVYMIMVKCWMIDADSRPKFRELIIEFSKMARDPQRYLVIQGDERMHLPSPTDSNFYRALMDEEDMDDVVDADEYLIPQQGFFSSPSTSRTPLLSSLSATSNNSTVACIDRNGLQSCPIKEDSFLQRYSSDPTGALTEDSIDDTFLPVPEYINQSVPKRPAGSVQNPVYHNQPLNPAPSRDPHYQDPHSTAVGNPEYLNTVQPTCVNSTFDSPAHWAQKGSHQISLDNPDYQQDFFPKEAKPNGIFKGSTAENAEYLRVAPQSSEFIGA
In short: as §1

EGFR L858R = target: T9, EGFR L858R (Homo sapiens, UniProt P00533, L858R); test: Inhibition of EGFR L858R biochemical enzymatic activity (HTRF); details: 1 mM ATP
T9 construct: purchased Carna Bio
In short: as §1

[3] = BaF3 cells, EGFR DEL19 - C797S, read-out: GI50 DEL19 - C797S/BaF3
[4] = BaF3 cells, EGFR DEL19 - T790-C797S, read-out: GI50 DEL19 - T790-C797S/BaF3
[5] = BaF3 cells, EGFR L858R - C797S, read-out: GI50 L858R - C797S/BaF3
[6] = BaF3 cells, EGFR L858R - T790-C797S, read-out: GI50 L858R - T790-C797S/BaF3
[7] = BaF3 cells, EGFR L858R - T790M, read-out: GI50 L858R - T790M/BaF3
[8] = BaF3 cells, EGFR L858R, read-out: GI50 L858R/BaF3
[9] = EGFR DEL19 - T790M, read-out: GI50 DEL19 - T790M
[10] = EGFR Del19, 1 mM ATP, 1 h, room temperature, read-out: IC50 @Del19
[11] = EGFR Del19-T790M, 1 h, room temperature, read-out: IC50 (nM) @Del19-T790M
[12] = EGFR T790M-C797S-L858R, 1 h, room temperature, read-out: IC50 (nM) @T790M- C797S - L858R
[13] = EGFR L858-C797S, 1 h, room temperature, read-out: IC50 (nM) @L858-C797S
[14] = EGFR Del19-C797S, 1 h, room temperature, read-out: IC50 (nM) @Del19-C797S
[15] = EGFR WT, 1 h, room temperature, read-out: IC50 (nM) @WT
[16] = EGFR L858R-T790M, 1 h, room temperature, read-out: IC50 (nM) @L858R-T790M
[17] = EGFR T790M-C797S-Del19, 1 mM ATP, 1 h, room temperature, read-out: IC50 (nM) @T790M - C797S - Del19
[18] = 1 h, room temperature, read-out: IC50 (nM) @L858R

Cc1cc2cc(n1)-c1cnn(C)c1OCCN1CC3CCC(CC3)(C1)n1c(nc3ccc(N4CCC(N(C)C)CC4)cc31)NC2=O [Example B27, 5-[4-(dimethylamino)piperidin-1-yl]-15,21-dimethyl-23-oxa-2,9,11,16,20,21,26-heptaazaheptacyclo[26.2.2.1^{1,26}.1^{13,17}.0^{2,10}.0^{3,8}.0^{18,22}]tetratriaconta-3,5,7,9,13,15,17(34),18(22),19-nonaen-12-one] showed an IC50 (EGFR Exon19Del; IC50 @Del19, EGFR Exon19Del, 1 mM ATP, 1 h at room temperature) of 11 nM, an IC50 (EGFR Exon19Del/T790M; IC50 @Del19-T790M, EGFR Exon19Del/T790M, 1 h at room temperature) of 8.3 nM and an IC50 (EGFR[T790M/C797S/L858R]; IC50 @T790M- C797S - L858R, EGFR[T790M/C797S/L858R], 1 h at room temperature) of 3.8 nM. The IC50 (EGFR (C797S L858R); IC50 @L858-C797S, EGFR (C797S L858R), 1 h at room temperature) was 30 nM, the GI50 (PC-9) was 19 nM and the IC50 (EGFR (d746-750 C797S); IC50 @Del19-C797S, EGFR (d746-750 C797S), 1 h at room temperature) was 6.3 nM. It also gave a GI50 [1, 3] of 2 nM, a GI50 [1, 4] of 2 nM and a GI50 [1, 5] of 22 nM. For the same compound, the GI50 [1, 6] was 2 nM, the GI50 [1, 7] was 5 nM and the GI50 [1, 8] was 17 nM. It also gave a GI50 [1, 9] of 2 nM, an IC50 (EGFR wild type; IC50 @WT, EGFR wild type, 1 h at room temperature) of 3540 nM and an IC50 (EGFR L858R/T790M; IC50 @L858R-T790M, EGFR L858R/T790M, 1 h at room temperature) of 8.3 nM. It also gave a GI50 (A-431) of 3600 nM, an IC50 ([2]; IC50 @T790M - C797S - Del19, EGFR[T790M/C797S/d746-750], 1 mM ATP, 1 h at room temperature) of 3.1 nM and an IC50 (EGFR L858R; IC50 @L858R, 1 h at room temperature) of 67 nM.

CN(C)CCN(C)c1ccc2nc3n(c2c1)C12CCC(CC1)CN(CCOc1c(cnn1C)-c1cc(cn(C)c1=O)C(=O)N3)C2 [Example A124] was tested, and the IC50 (EGFR Exon19Del; [10]) was 15 nM, the IC50 (EGFR Exon19Del/T790M; [11]) was 9.8 nM and the IC50 (EGFR[T790M/C797S/L858R]; [12]) was 72 nM. It also gave an IC50 (EGFR (C797S L858R); [13]) of 76 nM, a GI50 (PC-9) of 27 nM and an IC50 (EGFR (d746-750 C797S); [14]) of 11 nM. For the same compound, the GI50 [1, 3] was 7.2 nM, the GI50 [1, 4] was 38 nM and the GI50 [1, 5] was 32 nM. The GI50 [1, 6] was 11 nM, the GI50 [1, 7] was 47 nM and the GI50 [1, 8] was 5.2 nM. The GI50 [1, 9] was 26 nM, the IC50 (EGFR wild type; [15]) was 2790 nM and the IC50 (EGFR L858R/T790M; [16]) was 334 nM. For the same compound, the GI50 (A-431) was 3800 nM, the IC50 [2, 17] was 7.7 nM and the IC50 (EGFR L858R; [18]) was 139 nM.

In the case of CN(C)[C@@H]1CCN(c2ccc3nc4n(c3c2)C23CCC(CC2)CN(CCOc2c(cnn2C)-c2cc(cn(C)c2=O)C(=O)N4)C3)C1 [Example A121], the IC50 (EGFR Exon19Del; [10]) is reported as 25 nM, the IC50 (EGFR Exon19Del/T790M; [11]) is reported as 21 nM and the IC50 (EGFR[T790M/C797S/L858R]; [12]) is reported as 154 nM. The IC50 (EGFR (C797S L858R); [13]) was 101 nM, the GI50 (PC-9) was 27 nM and the IC50 (EGFR (d746-750 C797S); [14]) was 19 nM. The GI50 [1, 3] was 7.8 nM, the GI50 [1, 4] was 44 nM and the GI50 [1, 5] was 35 nM. It also gave a GI50 [1, 6] of 15 nM, a GI50 [1, 7] of 61 nM and a GI50 [1, 8] of 12 nM. The GI50 [1, 9] was 25 nM, the IC50 (EGFR wild type; [15]) was greater than 5000 nM and the IC50 (EGFR L858R/T790M; [16]) was 477 nM. The GI50 (A-431) was 4970 nM, the IC50 [2, 17] was 10 nM and the IC50 (EGFR L858R; [18]) was 167 nM.
